Results from patent US20120315624A1, “Using LNA Flow-Fish to Quantitatively Monitor Viral Infections in Infected Cells and Test the Efficacy of Antiviral Medications” (priority 2011, published 2012).

What was measured:
[1] = tested on: many DNA and RNA viruses including Sindbis; details: general statement on the nucleoside analog; cited from earlier work
Sindbis virus (SV) [2] = assay: LNA flow-FISH of Sindbis virus RNA in infected cells with and without antiviral; assay type: cell-based
Procedure: Cells were infected with the virus of interest and harvested at various timepoints during infection. Cells were harvested and fixed with 4% paraformaldehye and 5% acetic acid in phosphate-buffered saline (PBS) for 10 min at room temperature. After fixation, the cells were washed twice in PBS and stored at 4° C. until use.
A control oligonucleotide and a specific biotinylated LNA-modified DNA oligonucleotide were used for the quantification of SV RNA. The sequences of the probes along with other relevant details are found in reference 30. The control probe is a nonspecific 22-mer oligonucleotide (nonspecific LNA) lacking complementarity to cellular nucleic acids and having a Tm of 75° C. The specific LNA probe (SV LNA), complementary to the SV RNA portion encoding the structural proteins, was also a 22-mer with a Tm of 76° C. Each had approximately one-third locked nucleic acid content.
When ready to detect the virus present in the cells at various timepoints, the cells were permeabilized with 0.1 μg/mL Proteinase K in TE buffer (pH 8.0) for 30 min at 37° C. The cells were then washed twice with PBS. A pre-hybridization step was then carried out under the same conditions as the hybridization, but without LNA probe. After pre-hybridization, a solution of 0.1× saline-sodium citrate (SSC) buffer was added followed by centrifugation and removal of the supernatant. […]
To use the LNA flow-FISH method to study the efficacy of antiviral medication, before, during, or after infection, cells were treated with an antiviral compound and left for various amounts of time. […] The change in viral nucleic acid with antiviral treatment can be quantified by taking the mean fluorescence intensity (MFI) or by examining the percent of infected cells compared to uninfected cells.
(§1) As an example, Sindbis virus (SV) was used along with Ribavirin (Rbv), an antiviral, to test the LNA flow-FISH method for studying the action and efficacy of antiviral medications. […] Samples infected with SV with and without Rbv were analyzed by LNA flow-FISH.

Sindbis virus (SV) [3] = assay: EGFP signal of the recombinant Sindbis virus measured by flow cytometry; assay type: cell-based; details: SV-infected cells, 6-h incubation with Rbv, FIG. 4
Procedure: Sindbis virus (SV) was used to test the LNA flow-FISH method for the quantitative monitoring of a viral infection in cells. After infecting cells with SV, cells were collected at different timepoints and their mean fluorescence intensity (MFI) was measured using flow cytometry. The LNA flow-FISH technique was directly compared with a genetic recombination method of measuring viral infection—this was possible because the SV strain has an enhanced green fluorescent protein (eGFP) construct incorporated into the viral RNA. […] In addition, lysed cells were used to compare the LNA flow-FISH results with QRT-PCR.
To use the LNA flow-FISH method to study the efficacy of antiviral medication, before, during, or after infection, cells were treated with an antiviral compound and left for various amounts of time. The LNA flow-FISH method is then used as described above. The change in viral nucleic acid with antiviral treatment can be quantified by taking the mean fluorescence intensity (MFI) or by examining the percent of infected cells compared to uninfected cells.
as §1

NC(=O)c1ncn([C@@H]2O[C@H](CO)[C@@H](O)[C@H]2O)n1 [Rbv, Ribavirin]
replication of viruses [1]: inhibits the replication of many DNA and RNA viruses including Sindbis
viral replication (SV RNA by LNA flow-FISH) (Sindbis virus (SV) [2]; 6-h incubation with Rbv, FIG. 4): reduction in viral replication
mean fluorescence intensity (MFI) of samples with Rbv versus samples without antiviral (Sindbis virus (SV) [2]; 6 h, SV LNA flow-FISH and EGFP, FIG. 4): drastically lower
uninfected cells in the population when Rbv present (Sindbis virus (SV) [2]; 6 h with Rbv): no uninfected cells were observed
viral expression (EGFP) (Sindbis virus (SV) [3]): reduction
